Results: patent US7375083B2, “Pharmaceutical compositions for prevention of overdose or abuse” (Shire LLC, priority 2003, dated 2008)

How the values were obtained:
[1] = Kitchen tests: release of amphetamine by water, acid, base and heat; settings: heated to boiling for 20-60 minutes
Sprague Dawley rats = experiment: Single-dose oral toxicity; type: in vivo; settings: rat; for Observable signs: single oral dose
Description: Three male and three female Sprague Dawley rats per group were given a single oral administration of L-lysine-d-amphetamine at 0.1, 1.0, 10, 60, 100 or 1000 mg/kg (Table 44).
Animals found dead, or sacrificed moribund were necropsied and discarded. A total of one animal/sex/group was necropsied upon scheduled or unscheduled death.

Male Sprague-Dawley rats = experiment: Locomotor activity after intranasal administration with and without CMC; type: in vivo; settings: 1.0 mg/kg
[2] = Bolus intravenous bioavailability in rats, LC/MS/MS; settings: rat

CC(Cc1ccccc1)NC(=O)C(N)CCCCN [L-lysine-d-amphetamine, 2,6-diaminohexanoic acid-(1-methyl-2-phenylethyl)-amide]
amphetamine detected after treatment: Baking Powder [1]: 0%
amphetamine detected after treatment: Baking Soda [1]: 0%
amphetamine detected after treatment: Tap Water [1]: 0%
amphetamine detected after treatment: Vinegar [1]: 0%
Deaths (Sprague Dawley rats; single oral 1000 mg/kg, 7 days): only one death occurred out of a group of six animals
Observable signs (Sprague Dawley rats; Groups 1-3 (doses 0.1 to 1000 mg/kg in six groups)): no observable signs
Observable signs (Sprague Dawley rats; Groups 4-6 (doses 0.1 to 1000 mg/kg in six groups)): increased motor activity within two hours post-dose
Percent d-amphetamine (Male Sprague-Dawley rats; activity above baseline relative to d-amphetamine): 35%
Increase in activity over baseline compared to d-amphetamine dosed animals (Male Sprague-Dawley rats; rat, with CMC): 9%
Tmax ([2]; male, Sprague-Dawley, plasma, iv, […]): 4.98 min
Cmax of d-amphetamine relative to d-amphetamine ([2]; bolus intravenous): about one-fourth
